# Reference: patent US10494410B2, “Inhibitor Peptides of ERK-type MAP kinase” (Universite Pierre Et Marie Curie, priority 2005, dated 2019)
# Ends that are not written are not given here.
# Legend:
# Elk-1 = assay: Serum-induced P-Elk-1 in HEK cells, immunocytochemistry; format: cell-based; settings: peptide 10 μM for 40 minutes, serum 20 minutes
# Method: HEK cells are placed in the presence of the peptide P2 (FIG. 4, middle panels) or P1 (FIG. 4, right panels), at the concentration of 10 μM for 40 minutes. Nontreated cells (without peptide) are used as controls (FIG. 4, left panels).
# The cells are then treated for 20 minutes using fetal calf serum (serum) in order to activate the MAP kinase/ERK pathway.
# The corresponding nuclei are visualized by means of the same star on the panels of the third line, marked Hoechst.
# HEK293 cells = assay: Cell penetration and intracellular localization of FITC-coupled peptide in HEK293 cells (fluorescence, Hoechst nuclei); format: cell-based; settings: unlabeled peptide, statement in Example 1; cells not specified
# Method: HEK293 cells are placed in the presence of the peptide F2 at various concentrations (1 mM stock solution in distilled water, then dilutions to 25, 50 and 100 μM in DMEM culture medium), for 15, 30 or 60 minutes, continuously. The cell nuclei are labeled using Hoechst dye (left panel), and the peptide F2 is visualized by means of the FITC label (middle panel). […] The labeled cell nuclei are shown on the left panels, the peptide F2 on the middle panels and the superimposition of these two labelings is represented on the right panels (panels marked fusion).
# HEK293 cells are placed in the presence of the peptide F1 at various concentrations (1 mM stock solution in distilled water, then dilutions to 25, 50 and 100 μM in
# DMEM culture medium) for 15, 30 or 60 minutes, continuously. The cell nuclei are labeled using Hoechst dye, and the peptide F1 is visualized by means of the FITC label.
sequence,measurement,setting,value
"GRKKRRQRRRCCTLWQFLLHLLLDSPAKLSFQFPSGSAQVHI (sequence which inhibits the interaction between Elk 1 and ERK) [Peptide P1, HIV-TAT penetrating peptide, CC cleavage site, NES of Net, FXFP docking domain of Elk-1]",induction of P-Elk-1 (phosphorylation of Elk-1) in response to serum,Elk-1,not and also in the presence of serum and of the peptide P1
same,cell penetration,HEK293 cells,penetrates into the cells
GRKKRRQRRRPPSPAKLSFQFPSGSAQVHI [Peptide P2],cell penetration,HEK293 cells,penetrates into the cells
